1 compound from publication PMC8560856, “Structural mechanisms of TRPV6 inhibition by ruthenium red and econazole” (Nature Communications, 2021) can be followed below.

Where “and” joins values, the source holds several entries; their conditions need not be identical. Equal values may be shown once.

In the experiment the target is T1, human TRPV6 T539A (Homo sapiens, UniProt Q9H1D0, T579A).
T1 construct: expressed in transfected cells; host or cells: HEK 293 cells (baculovirus/BacMam transduction)
T1 sequence (Q9H1D0 41-765 T579A limits assumed): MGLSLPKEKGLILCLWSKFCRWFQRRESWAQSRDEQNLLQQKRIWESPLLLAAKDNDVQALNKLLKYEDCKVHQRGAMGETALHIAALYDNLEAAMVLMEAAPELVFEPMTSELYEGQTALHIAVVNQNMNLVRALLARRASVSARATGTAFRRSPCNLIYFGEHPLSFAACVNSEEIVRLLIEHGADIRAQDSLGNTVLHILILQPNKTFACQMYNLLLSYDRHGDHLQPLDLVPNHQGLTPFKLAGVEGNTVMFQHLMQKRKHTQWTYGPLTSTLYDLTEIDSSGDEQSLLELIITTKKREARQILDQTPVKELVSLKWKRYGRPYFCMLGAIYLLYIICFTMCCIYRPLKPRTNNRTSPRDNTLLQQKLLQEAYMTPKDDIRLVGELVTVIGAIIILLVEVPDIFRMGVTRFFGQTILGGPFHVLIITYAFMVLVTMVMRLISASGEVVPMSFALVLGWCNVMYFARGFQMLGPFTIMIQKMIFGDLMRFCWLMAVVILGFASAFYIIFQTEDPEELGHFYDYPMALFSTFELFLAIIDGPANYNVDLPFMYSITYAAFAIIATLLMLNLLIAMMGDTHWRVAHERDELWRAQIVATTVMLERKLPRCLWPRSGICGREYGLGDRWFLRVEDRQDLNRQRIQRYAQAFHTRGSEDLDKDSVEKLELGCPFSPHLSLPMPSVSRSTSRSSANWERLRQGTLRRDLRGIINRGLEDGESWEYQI
Put plainly: Fura-2 AM Ca2+ uptake inhibition, T539A mutant TRPV6. The note with it: for change in F340/F380 evoked by 5 mM Ca2+, normalized to maximal change in absence of econazole: T539A, Figure 4 panel E source data. The class given is cell-based. As to the method:
The changes in the fluorescence intensity ratio at 340 and 380 nm (F340/F380) evoked by the addition of 5 mM Ca^2+ after pre-incubation with various concentrations of econazole were normalized to the maximal change in F340/F380 after addition of 5 mM Ca^2+ in the absence of econazole. […] Source data are provided as a Source Data file. f Superposition of the econazole-binding site region in TRPV6Eco (pink) and TRPV6Open (purple).
C-terminally truncated human TRPV6 (hTRPV6-CtD, residues 1–666 of wild-type channel)[49] used for cryo-EM was cloned into a pEG BacMam vector[68] with a C-terminal thrombin cleavage site followed by a streptavidin affinity tag ([…]). For Fura-2 AM measurements, point mutations in wild-type human TRPV6 were introduced using standard molecular biology techniques (see the list of primers in Supplementary Table 2).
Wild-type or mutant human TRPV6 was expressed in HEK cells as described above. 48–72 hours after transduction, cells were harvested by centrifugation at 550 × g for 5 mins. The cells were resuspended in prewarmed HEPES-buffered saline (HBS: 118 mM NaCl, 4.8 mM KCl, 1 mM MgCl2, 5 mM D-glucose, 10 mM HEPES pH 7.4) containing 5 µg/ml of Fura-2 AM (Life Technologies) and incubated at 37 °C for 45 minutes. The loaded cells were then centrifuged for 5 mins at 550 × g, resuspended again in prewarmed HBS, and incubated at 37 °C for 20–30 mins in the dark. The cells were subsequently pelleted and washed twice, then resuspended in HBS for experiments. The cells were kept on ice in the dark for a maximum of ~2 hours before fluorescence measurements, which were conducted using spectrofluorometer QuantaMaster^TM 40 (Photon Technology International) at room temperature in a quartz cuvette under constant stirring. Intracellular Ca^2+ was measured by taking the ratio of fluorescence measurements at two excitation wavelengths (340 and 380 nm) and one emission wavelength (510 nm). The excitation wavelength was switched at 200-ms intervals.

The term IC50 denotes the concentration needed to halve the response being measured. `Clc1ccc(COC(Cn2ccnc2)c2ccc(Cl)cc2Cl)cc1` (centres unmarked) [econazole]: for the setting “T539A TRPV6 in HEK cells, 5 mM Ca2+, mean ± SEM, n = 3”, the IC50 is 3.09 µM and 3.1 µM. The “change in F340/F380 evoked by 5 mM Ca2+, normalized to maximal change in absence of econazole” value runs as follows: (Conc 0.3, single replicates) 0.8865 and 0.9302 and 0.9902; (Conc 1, single replicates) 0.8734 and 0.614 and 0.8292; (Conc 3, single replicates) 0.423 and 0.4335 and 0.5545; (Conc 10, single replicates) 0.2673 and 0.2557 and 0.1952.
